Measurements taken from patent publication US11571433B2, “Methods for treating memory impairment and cognitive dysfunction” (CARMEL HAIFA […] CORPORATION LTD., priority 2018, dated 2023).

Assays:
[1] = test system: Hippocampal slices from AS mice; assay: High frequency stimulation LTP (fEPSP slope) in area CA1 of hippocampal slices; type: cell-based, mouse; details: for LTP deficit after high frequency stimulation: AS mice hippocampal slices, MBG 0.5 μM 20 min before, during and 20 min after tetanization, vs vehicle
Method: Electrophysiology: Hippocampal slices were prepared from wild-type and AS model mice as previously described (Kaphzan et al., 2012; Kaphzan et al., 2013). LTP was induced in area CA1 with high frequency stimulation (HFS) by delivering two 100 Hz trains of HFS with an intertrain interval of 20 sec. The initial slope of the field excitatory postsynaptic potential (fEPSP) for each experiment was expressed as the ratio to the average baseline response prior to delivery of HFS.
(§1) Drug handling: Marinobufagenin was kept in stock solution (1 mg/10 ml) in 0.5% DMSO and was freshly diluted to the required concentration 0.042 mg/mL by saline prior to the experiment. At this stock concentration a volume of 100 μL for 16 days in a rate of 0.25 μL/hour correlated to approximately 10 μg/kg/day for a mouse of 25 grams. The exact concentration was calculated for each mouse according to its body weight. As a vehicle 1:200 stock solution of DMSO in water (the maximal concentration of DMSO matched to the maximal dose of MBG, i.e. 10 μg/kg/day) was used. For delivery via osmotic pumps only mice that weigh more than 20 g were used. For LTP studies, marinobufagenin was kept at 100 mM stock solution in DMSO and was freshly dissolved in 1:100,000 carboxygenated artificial cerebrospinal fluid to the final concentration of 1 μM. For chronic injections Alzet osmotic pumps filled with marinobufagenin were used as described (Elkareh et al., 2007; Fedorova et al., 2009; Kennedy et al., 2006; Liu et al., 2012; Yoshika et al., 2007).
Hippocampal slices from WT and AS mice were stimulated with a single train of high frequency stimulation (1 sec 100 Hz-indicated by an arrow). Some of the AS slices were treated with either vehicle or MBG 0.5 μM 20 min before, during and 20 min after tetanization. WT vehicle: mice n=3, slices n=6; AS vehicle: mice n=2, slices n=4; AS MBG: mice n=2, slices n=4. P<0.05 for interaction of time and treatment in 2-way RM-ANOVA. Sample traces 1-baseline, 2-20 min after HFS.

a1-NaKA = target: T1, a1-NaKA (Mus musculus, UniProt Q8VDN2); assay: Inhibition of a1-NaKA; details: 0.5 μM MBG
T1 construct: Hippocampal slices from WT and AS mice were stimulated; from tissue; host or cells: mouse hippocampal slices (WT and Angelman syndrome model mice)

AS model mice [2] = assay: Morris water maze; type: in vivo, mouse; details: chronic MBG infusion
Method: as §1
Morris water maze: MWM experiments were performed as previously described (Kaphzan et al., 2013). […] The animals' trajectories, escape latencies, number of previous platform position crossing, time spent in each quadrant, and swim speed were recorded with a computerized video-tracking system (Noldus EthoVision).

AS model mice [3] = assay: Contextual fear conditioning; type: in vivo, mouse; details: IP infusion 10 μg/kg/day by osmotic pump, started 2 weeks before conditioning, tested 24 hours after training
Method: as §1
Contextual fear conditioning: Mice were placed into a standard conditioning chamber and given a two-sec scrambled foot shock (0.75 mA) twice, two minutes and four minutes after session onset. […] The occurrence of freezing was measured every 10 seconds throughout training. […] The occurrence of freezing was measured every 10 sec throughout testing. […]

CA1 pyramidal cells = assay: Whole cell recordings of resting membrane potential of CA1 pyramidal cells in hippocampal slices; type: cell-based; details: MBG 10 μM, 10 min incubation; AS mouse vs WT littermate; P=0.07
Method: The effect of a1-NaKA inhibition with MBG 10 μM on the resting membrane potential was tested (FIG. 2). Hippocampal slices were incubated for 10 min with MBG 10 μM. Whole cell recordings of CA1 pyramidal cells show a larger effect on the resting membrane potential of AS mouse compared to a WT littermate. WT 1 mouse, cells n=4. AS: 1 mouse cells n=5. P=0.07 for the interaction in 2 way RM-ANOVA.

## C[C@]12CC[C@H](O)C[C@@]1(O)CC[C@@H]1[C@@H]2CC[C@]2(C)[C@@H](c3ccc(=O)oc3)C[C@H]3O[C@]132 [MBG, 3-beta,5-dihydroxy-14,15-beta-epoxy-5-beta-bufa-20,22-dienolide]
[1]; AS hippocampal slices incubated with MBG 1 μM
  HFS-LTP impairment: rescue of the impaired LTP phenotype
[1]
  LTP deficit after high frequency stimulation: induced a recovery of LTP deficit
[1]; listed as marinobufagenin
  LTP deficit after high frequency stimulation: correction of long-term potentiation defects
[1]; hippocampal slices incubated with MBG 1 μM
  baseline synaptic transmission: no effect on baseline synaptic transmission
[1]; hippocampal slices, MBG 0.5 μM
  baseline synaptic transmission: did not affect baseline synaptic transmission
a1-NaKA
  Inhibition of a1-NaKA: partial and mild
AS model mice [2]
  visuospatial memory in the Morris water maze: impairment is corrected
AS model mice [3]
  contextual fear memory: corrects impaired contextual fear memory
CA1 pyramidal cells
  effect on resting membrane potential: larger effect in AS mice than in wild-type littermates
